Test results from ChEMBL document CHEMBL1143017, “Structural assignment of poecillastrins B and C, macrolide lactams from the deep-water Caribbean sponge Poecillastra species” (J Nat Prod, 2007).

Assay: Cytotoxicity against human LOX cells
Format: cell-based

COC1/C=C/C=C/CC/C=C/C=C/C(=O)NC(C(O)C(=O)O)C(=O)OC(C(NC(=O)C(C)C(O)CCC(C)C(O)/C(C)=C/C(C)(C)C(O)C(CC(C)C)NC(=O)/C=C/C(C)(C)C(=O)C(C)C(O)C(C)C)C(C)O)C(C)C(O)C/C=C(\C)C(O)C(C)/C=C(\C)C(O)C(C)C(O)CC2CC(C)CC1O2 (configuration not stated) [POECILLASTRIN B]
IC50: < 1 µg/mL

COC1/C=C/C=C/CC/C=C/C=C/C(=O)NC(C(O)C(=O)O)C(=O)OC(C(NC(=O)C(C)C(O)CCC(C)C(O)/C(C)=C/C(C)C(O)C(CC(C)C)NC(=O)/C=C/C(C)(C)C(=O)C(C)C(O)C(C)C)C(C)O)C(C)C(O)C/C=C(\C)C(O)C(C)/C=C(\C)C(O)C(C)C(O)CC2CC(C)CC1O2 (configuration not stated) [POECILLASTRIN C]
IC50: < 1 µg/mL
